{"source": "ChEMBL document CHEMBL5038569", "about": "“Targeting RECQL5 Functions, by a Small Molecule, Selectively Kills Breast Cancer in Vitro and in Vivo” (J Med Chem, 2021)", "key": {"[1]": {"system": "MCF7", "assay": "Induction of DNA damage in human MCF7 cells expressing wild type RECQL5 assessed as double strand breaks by measuring increase in phosphorylation of CHK2 at T68 residue at 20 uM measured up to 24 hrs by Western blot analysis", "format": "functional, cell-based", "settings": "time hrs <=24"}, "[2]": {"system": "MCF7", "assay": "Induction of DNA damage in RECQL5 knock out human MCF7 cells assessed as double strand breaks by measuring increase in phosphorylation of p53 at S15 residue at 20 uM measured up to 24 hrs by Western blot analysis", "format": "functional, cell-based", "settings": "time hrs <=24"}, "[3]": {"system": "MCF7", "assay": "Antitumor activity against human MCF7 cells expressing wild type RECQL5 xenografted in nude mouse assessed as reduction in tumor growth at 50 mg/kg, po administered as single dose via gavage measured after 30 days", "format": "functional, organism-based", "settings": "time 30.0 day, TDE = time-dependent effect"}, "[4]": {"system": "MCF7", "assay": "Stabilization of RECQL5-RAD51 complex in human MCF7 cells expressing wild type RECQL5 assessed as increase in accumulation of nucleus-bound RECQL5 and RAD51 at 20 uM measured after 4 to 24 hrs by Western blot analysis", "format": "cell-based", "settings": "time 4-24 hrs"}, "[5]": {"assay": "Toxicity in nude mouse xenografted with human MCF7 cells assessed as body weight loss at 50 mg/kg, po administered via oral gavage for 30 days and measured every 5 days", "format": "organism-based", "settings": "in vivo, 720 h, time 30 day"}, "[6]": {"system": "MCF7", "assay": "Induction of DNA damage in RECQL5 knock out human MCF7 cells assessed as double strand breaks by measuring increase in phosphorylation of ATR at S428 residue at 20 uM measured up to 24 hrs by Western blot analysis", "format": "functional, cell-based", "settings": "time hrs <=24"}, "[7]": {"system": "T47D", "assay": "Induction of DNA damage in human T47D cells expressing wild type RECQL5 assessed as double strand breaks by measuring increase in gamma-H2AX foci formation incubated for 24 hrs by immunofluorescence microscopic analysis", "format": "functional, cell-based", "settings": "dose 0-20 µM"}, "[8]": {"system": "MCF7", "assay": "Induction of DNA damage in RECQL5 knock out human MCF7 cells assessed as double strand breaks by measuring increase in phosphorylation of CHK1 at S345 residue at 20 uM measured up to 24 hrs by Western blot analysis", "format": "functional, cell-based", "settings": "time hrs <=24"}, "[9]": {"assay": "Inhibition of ds-DNA dependent human RECQL5 ATPase activity measured after 60 mins by luciferin-based multiplate reader method"}, "[10]": {"system": "MCF7", "assay": "Cytotoxicity against human MCF7 cells with shRNA-mediated BLM depletion assessed as reduction in cell viability at 6 to 25 uM measured after 8 to 10 days by clonogenic survival assay", "format": "functional, cell-based", "settings": "dose 6-25 µM, time 8-10 day"}, "[11]": {"assay": "Toxicity in nude mouse xenografted with human MCF7 cells assessed as morphological changes in spleen at 50 mg/kg, po administered via oral gavage and measured after 30 days", "format": "organism-based", "settings": "in vivo, 720 h, time 30 day"}, "[12]": {"system": "MCF7", "assay": "Reversal of RECQL5 knock out resistance phenotype in human MCF7 cells expressing RFP assessed as reduction in cell viability at 6 to 25 uM measured after 72 hrs by MTT assay", "format": "functional, cell-based", "settings": "dose 6-25 µM"}, "[13]": {"species": "Homo sapiens", "assay": "Inhibition of His-tagged human RECQL5 binding to [gamma 32P] labeled DNA substrate assessed as RECQL5-DNA complex formation at 10 uM preincubated for 30 mins followed by substrate addition and measured after 15 mins by gel electrophoresis and autoradiography method", "settings": "time 45.0 min"}, "[14]": {"system": "MCF7", "assay": "Induction of mitotic catastrophe phenotype in human MCF7 cells assessed as micronucleus formation at 20 uM pretreated with cisplatin for 8 hrs followed by compound addition and measured after 24 hrs by immunofluorescence microscopic analysis", "format": "functional, cell-based"}, "[15]": {"system": "MCF7", "assay": "Induction of mitotic catastrophe phenotype in human MCF7 cells assessed as fused nucleus at 20 uM pretreated with cisplatin for 8 hrs followed by compound addition and measured after 24 hrs by immunofluorescence microscopic analysis", "format": "functional, cell-based"}, "[16]": {"system": "T47D", "assay": "Cytotoxicity against ER/PR-positive HER2-negative CRISPR/Cas9 engineered human T47D cells expressing wild type RECQL5 and p53 mutant assessed as reduction in colony formation measured after 8 to 10 days by clonogenic survival assay", "format": "functional, cell-based", "settings": "time 8-10 day"}, "[17]": {"assay": "Inhibition of full length His-tagged human RECQL5 expressed in Escherichia coli incubated for 15 mins by fluorescence based assay"}, "[18]": {"system": "T47D", "assay": "Inhibition of homologous recombinant repair in RECQL5 knock out human T47D cells assessed as stabilization of RAD51-RECQL5 interaction by measuring increase in RAD51 foci formation at 20 uM measured after 4 to 24 hrs by immunofluorescence microscopic analysis", "format": "functional, cell-based", "settings": "time 4-24 hrs"}, "[19]": {"system": "MCF7", "assay": "Effect on NHEJ-mediated double strand break repair in RECQL5 knock out human MCF7 cells assessed as accumulation of KU80 on chromatin at 20 uM measured up to 24 hrs by Western blot analysis", "format": "cell-based", "settings": "time hrs <=24"}, "[20]": {"assay": "Toxicity in nude mouse xenografted with human MCF7 cells assessed as morphological changes in lungs at 50 mg/kg, po administered via oral gavage and measured after 30 days", "format": "organism-based", "settings": "in vivo, 720 h, time 30 day"}, "[21]": {"molecular_target": "T1, DNA repair protein RAD51 homolog 1 (Homo sapiens) (UniProt Q06609)", "T1 sequence (whole entry)": "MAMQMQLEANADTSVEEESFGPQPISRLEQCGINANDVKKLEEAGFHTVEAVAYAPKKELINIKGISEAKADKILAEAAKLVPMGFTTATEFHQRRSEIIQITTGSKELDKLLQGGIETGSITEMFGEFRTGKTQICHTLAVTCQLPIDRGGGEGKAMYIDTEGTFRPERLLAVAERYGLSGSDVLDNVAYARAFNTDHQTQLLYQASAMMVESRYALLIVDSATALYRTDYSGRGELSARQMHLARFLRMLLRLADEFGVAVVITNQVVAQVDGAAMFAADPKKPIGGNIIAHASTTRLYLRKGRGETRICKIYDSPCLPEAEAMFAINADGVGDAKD", "assay": "Stabilization of RAD51 foci in human cisplatin-resistant MCF7 cells assessed as increase in RAD51 positive cells at 20 uM pretreated with cisplatin for 8 hrs followed by compound addition and measured after 24 hrs by immunofluorescence microscopic analysis", "format": "cell-based"}, "[22]": {"system": "MCF7", "assay": "Induction of cell sensitization to cisplatin in cisplatin-resistant human MCF-7 cells assessed as reduction in colony formation at 5 uM measured after 8 to 10 days by clonogenic survival assay", "format": "functional, cell-based", "settings": "time 8-10 day"}, "[23]": {"system": "MCF7", "assay": "Induction of mitotic catastrophe phenotype in human cisplatin-resistant MCF7 cells assessed as fused nucleus at 20 uM pretreated with cisplatin for 8 hrs followed by compound addition and measured after 24 hrs by immunofluorescence microscopic analysis", "format": "functional, cell-based"}, "[24]": {"system": "MCF7", "assay": "Induction of DNA damage in human MCF7 cells expressing wild type RECQL5 assessed as double strand breaks by measuring increase in phosphorylation of CHK1 at S345 residue at 20 uM measured up to 24 hrs by Western blot analysis", "format": "functional, cell-based", "settings": "time hrs <=24"}, "[25]": {"system": "MCF7", "assay": "Cytotoxicity against human MCF7 cells expressing wild type RECQL5 assessed as cell growth inhibition measured after 72 hrs by MTT assay", "format": "functional", "settings": "dose 6-50 µM"}, "[26]": {"system": "MCF7", "assay": "Induction of apoptosis in human MCF7 cells expressing wild type RECQL5 assessed as fold increase in cell death at 20 uM measured after 72 hrs by propidium iodide/RNase A staining based flow cytometric analysis relative to control", "format": "functional"}, "[27]": {"system": "MCF7", "assay": "Induction of DNA damage in RECQL5 knock out human MCF7 cells assessed as double strand breaks by measuring increase in gamma-H2AX foci formation incubated for 24 hrs by immunofluorescence microscopic analysis", "format": "functional, cell-based"}, "[28]": {"assay": "Cytotoxicity against human MCF-10A cells expressing RECQL5 assessed as cell growth inhibition measured after 72 hrs by MTT assay", "format": "toxicity, cell-based"}}, "note": "Calls of active or inactive are those of the source. The rule behind the calls is not given here."}
{"compound": "O=C(Nc1cc(C(F)(F)F)cc(C(F)(F)F)c1)N[C@@H](c1ccccc1)c1nnc(SCc2ccccc2)o1", "values": [{"measurement": "Activity", "setting": "[1]", "value": "Active"}, {"measurement": "Activity", "setting": "[2]", "value": "inactive"}, {"measurement": "Activity", "setting": "[3]", "value": "Tde"}, {"measurement": "Activity", "setting": "[4]", "value": "inactive"}, {"measurement": "Activity", "setting": "[5]", "value": "Non-Toxic"}, {"measurement": "Activity", "setting": "[6]", "value": "inactive"}, {"measurement": "Activity", "setting": "[7]", "value": "Dose-Dependent Effect"}, {"measurement": "Activity", "setting": "[8]", "value": "inactive"}, {"measurement": "IC50", "setting": "[9]", "value": 23.9, "unit": "µM"}, {"measurement": "Activity", "setting": "[10]", "value": "Active"}, {"measurement": "Activity", "setting": "[11]", "value": "Non-Toxic"}, {"measurement": "Activity", "setting": "[12]", "value": "inactive"}, {"measurement": "inhibition", "setting": "[13]", "value": "inactive"}, {"measurement": "Activity", "setting": "[14]", "value": "Active"}, {"measurement": "Activity", "setting": "[15]", "value": "Active"}, {"measurement": "Activity", "setting": "[16]", "value": "Active"}, {"measurement": "IC50", "setting": "[17]", "value": 0.0463, "unit": "µM"}, {"measurement": "inhibition", "setting": "[18]", "value": "inactive"}, {"measurement": "Activity", "setting": "[19]", "value": "inactive"}, {"measurement": "Activity", "setting": "[20]", "value": "Non-Toxic"}, {"measurement": "Activity", "setting": "[21]", "value": "Active"}, {"measurement": "Activity", "setting": "[22]", "value": "Active"}, {"measurement": "Activity", "setting": "[23]", "value": "Active"}, {"measurement": "Activity", "setting": "[24]", "value": "Active"}, {"measurement": "IC20", "setting": "[25]", "value": 8.2, "unit": "µM"}, {"measurement": "fold change (FC)", "setting": "[26]", "value": 2.5}, {"measurement": "Activity", "setting": "[27]", "value": "inactive"}, {"measurement": "IC20 at 72 h", "setting": "[28]", "value": 33.4, "unit": "µM"}]}
